According to PubChem BioAssay (NCI):
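Tested at 5 concentrations; 48 h exposure; 96-well plates; endpoints linearly interpolated, else capped at highest concentration. GI50 = concentration required for 50% inhibition of growth. TGI: total growth inhibition.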

How the values were obtained:
Assay in all cases: NCI anticancer screen, dose series, 48 h
[1] = test system: OVCAR-4 ovarian
[2] = test system: SN12C renal
[3] = test system: SF-539 CNS
[4] = test system: SK-MEL-28 melanoma
[5] = test system: MDA-MB-231 breast
[6] = test system: UACC-257 melanoma
[7] = test system: 786-0 renal
[8] = test system: SF-268 CNS
[9] = test system: HCT-116 colon
[10] = test system: SK-MEL-2 melanoma
[11] = test system: NCI-H226 lung
[12] = test system: OVCAR-8 ovarian
[13] = test system: NCI-H522 lung
[14] = test system: MCF7 breast
[15] = test system: NCI/ADR-RES ovarian
[16] = test system: UACC-62 melanoma
[17] = test system: MALME-3M melanoma
[18] = test system: EKVX NSCLC
[19] = test system: K-562 leukemia
[20] = test system: M14 melanoma
[21] = test system: TK-10 renal
[22] = test system: NCI-H460 lung
[23] = test system: SNB-75 CNS
[24] = test system: SF-295 CNS
[25] = test system: KM12 colon
[26] = test system: IGROV1 ovarian
[27] = test system: SK-OV-3 ovarian
[28] = test system: PC-3 prostate
[29] = test system: A498 renal
[30] = test system: HL-60(TB) leukemia
[31] = test system: NCI-H23 lung
[32] = test system: MOLT-4 leukemia
[33] = test system: BT-549 breast
[34] = test system: HOP-62 NSCLC
[35] = test system: UO-31 renal
[36] = test system: OVCAR-5 ovarian
[37] = test system: CAKI-1 renal
[38] = test system: COLO 205 colon
[39] = test system: HOP-92 NSCLC
[40] = test system: DU-145 prostate
[41] = test system: SR leukemia
[42] = test system: RXF 393 renal
[43] = test system: CCRF-CEM leukemia
[44] = test system: HT29 colon
[45] = test system: HS 578T breast
[46] = test system: HCT-15 colon
[47] = test system: RPMI-8226 leukemia
[48] = test system: MDA-MB-435
[49] = test system: U251 CNS
[50] = test system: ACHN renal
[51] = test system: SNB-19 CNS
[52] = test system: T-47D breast
[53] = test system: SW-620 colon
[54] = test system: HCC-2998 colon
[55] = test system: A549 NSCLC

**Q.** Which GI50 [1] does the source give for `O=c1oc2ccc(-c3ccc(F)cc3F)cc2c(=O)n1-c1cccc(C(F)(F)F)c1` here?
**A.** The GI50 was 1.61 µM.

**Q.** What about the TGI [1] of the same compound?
**A.** Its TGI is 40.1 µM.

**Q.** What about the GI50 [2] of the same compound?
**A.** Its GI50 is 1.35 µM.

**Q.** And the TGI [2]?
**A.** Its TGI is 4.15 µM.

**Q.** What about the GI50 [3] of the same compound?
**A.** The GI50 was 1.59 µM.

**Q.** And the TGI [3]?
**A.** Its TGI is 6.45 µM.

**Q.** And the GI50 [4]?
**A.** The GI50 was 1.73 µM.

**Q.** And the TGI [4]?
**A.** Its TGI is 7.48 µM.

**Q.** What about the GI50 [5] of the same compound?
**A.** Its GI50 is 1.21 µM.

**Q.** And the TGI [5]?
**A.** The TGI was 2.97 µM.

**Q.** And the GI50 [6]?
**A.** Its GI50 is 1.21 µM.

**Q.** And the TGI [6]?
**A.** The TGI was 3.87 µM.

**Q.** And the GI50 [7]?
**A.** The GI50 was 1.77 µM.

**Q.** And the TGI [7]?
**A.** The TGI was 9.55 µM.

**Q.** And the GI50 [8]?
**A.** Its GI50 is 1.55 µM.

**Q.** And the TGI [8]?
**A.** Its TGI is 12 µM.

**Q.** What about the GI50 [9] of the same compound?
**A.** The GI50 was 1.55 µM.

**Q.** And the TGI [9]?
**A.** The TGI was 5.85 µM.

**Q.** What about the GI50 [10] of the same compound?
**A.** The GI50 was 1.21 µM.

**Q.** What about the TGI [10] of the same compound?
**A.** Its TGI is 3.37 µM.

**Q.** And the GI50 [11]?
**A.** Its GI50 is 1.51 µM.

**Q.** What about the TGI [11] of the same compound?
**A.** Its TGI is 5.58 µM.

**Q.** What about the GI50 [12] of the same compound?
**A.** The GI50 was 1.72 µM.

**Q.** What about the TGI [12] of the same compound?
**A.** The TGI was over 50 µM.

**Q.** What about the GI50 [13] of the same compound?
**A.** The GI50 was 1.42 µM.

**Q.** What about the TGI [13] of the same compound?
**A.** The TGI was 6.02 µM.

**Q.** What about the GI50 [14] of the same compound?
**A.** The GI50 was 1.29 µM.

**Q.** What about the TGI [14] of the same compound?
**A.** Its TGI is 4.79 µM.

**Q.** What about the GI50 [15] of the same compound?
**A.** The GI50 was 1.27 µM.

**Q.** And the TGI [15]?
**A.** Its TGI is 3.96 µM.

**Q.** And the GI50 [16]?
**A.** Its GI50 is 1.2 µM.

**Q.** And the TGI [16]?
**A.** Its TGI is 3.65 µM.

**Q.** What about the GI50 [17] of the same compound?
**A.** The GI50 was 1.16 µM.

**Q.** What about the TGI [17] of the same compound?
**A.** Its TGI is 3.26 µM.

**Q.** And the GI50 [18]?
**A.** Its GI50 is 1.18 µM.

**Q.** What about the TGI [18] of the same compound?
**A.** The TGI was 4.64 µM.

**Q.** What about the GI50 [19] of the same compound?
**A.** The GI50 was 1.63 µM.

**Q.** And the TGI [19]?
**A.** Its TGI is over 50 µM.

**Q.** What about the GI50 [20] of the same compound?
**A.** The GI50 was 1.71 µM.

**Q.** And the TGI [20]?
**A.** The TGI was 8.41 µM.

**Q.** What about the GI50 [21] of the same compound?
**A.** The GI50 was 2.25 µM.

**Q.** And the TGI [21]?
**A.** The TGI was 12 µM.

**Q.** What about the GI50 [22] of the same compound?
**A.** The GI50 was 1.53 µM.

**Q.** And the TGI [22]?
**A.** Its TGI is 5.77 µM.

**Q.** And the GI50 [23]?
**A.** The GI50 was 0.906 µM.

**Q.** What about the TGI [23] of the same compound?
**A.** The TGI was 2.59 µM.

**Q.** And the GI50 [24]?
**A.** Its GI50 is 1.23 µM.

**Q.** What about the TGI [24] of the same compound?
**A.** Its TGI is 3.34 µM.

**Q.** What about the GI50 [25] of the same compound?
**A.** Its GI50 is 1.61 µM.

**Q.** What about the TGI [25] of the same compound?
**A.** Its TGI is 5.46 µM.

**Q.** What about the GI50 [26] of the same compound?
**A.** The GI50 was 1.49 µM.

**Q.** And the TGI [26]?
**A.** Its TGI is 8.81 µM.

**Q.** What about the GI50 [27] of the same compound?
**A.** The GI50 was 1.31 µM.

**Q.** What about the TGI [27] of the same compound?
**A.** Its TGI is 3.97 µM.

**Q.** What about the GI50 [28] of the same compound?
**A.** The GI50 was 1.64 µM.

**Q.** And the TGI [28]?
**A.** Its TGI is 7.54 µM.

**Q.** And the GI50 [29]?
**A.** The GI50 was 0.902 µM.

**Q.** And the TGI [29]?
**A.** Its TGI is 2.38 µM.

**Q.** And the GI50 [30]?
**A.** The GI50 was 1.1 µM.

**Q.** What about the TGI [30] of the same compound?
**A.** Its TGI is 2.89 µM.

**Q.** What about the GI50 [31] of the same compound?
**A.** The GI50 was 1.13 µM.

**Q.** What about the TGI [31] of the same compound?
**A.** The TGI was 3.73 µM.

**Q.** What about the GI50 [32] of the same compound?
**A.** The GI50 was 1.55 µM.

**Q.** What about the TGI [32] of the same compound?
**A.** The TGI was 6.89 µM.

**Q.** What about the GI50 [33] of the same compound?
**A.** The GI50 was 1.66 µM.

**Q.** What about the TGI [33] of the same compound?
**A.** Its TGI is 6.77 µM.

**Q.** What about the GI50 [34] of the same compound?
**A.** The GI50 was 1.48 µM.

**Q.** What about the TGI [34] of the same compound?
**A.** The TGI was 6.33 µM.

**Q.** What about the GI50 [35] of the same compound?
**A.** The GI50 was 1.13 µM.

**Q.** And the TGI [35]?
**A.** The TGI was 4.92 µM.

**Q.** And the GI50 [36]?
**A.** The GI50 was 1.55 µM.

**Q.** What about the TGI [36] of the same compound?
**A.** Its TGI is over 50 µM.

**Q.** And the GI50 [37]?
**A.** Its GI50 is 1.02 µM.

**Q.** And the TGI [37]?
**A.** Its TGI is 2.99 µM.

**Q.** And the GI50 [38]?
**A.** The GI50 was 5.91 µM.

**Q.** And the TGI [38]?
**A.** The TGI was 14.4 µM.

**Q.** And the GI50 [39]?
**A.** The GI50 was 0.952 µM.

**Q.** And the TGI [39]?
**A.** The TGI was 2.78 µM.

**Q.** What about the GI50 [40] of the same compound?
**A.** Its GI50 is 2 µM.

**Q.** And the TGI [40]?
**A.** The TGI was over 50 µM.

**Q.** And the GI50 [41]?
**A.** Its GI50 is 1.64 µM.

**Q.** What about the TGI [41] of the same compound?
**A.** Its TGI is over 50 µM.

**Q.** And the GI50 [42]?
**A.** The GI50 was 1.28 µM.

**Q.** And the TGI [42]?
**A.** The TGI was 3.93 µM.

**Q.** What about the GI50 [43] of the same compound?
**A.** Its GI50 is 1.71 µM.

**Q.** And the TGI [43]?
**A.** The TGI was 24.5 µM.

**Q.** And the GI50 [44]?
**A.** Its GI50 is 6.24 µM.

**Q.** And the TGI [44]?
**A.** Its TGI is over 50 µM.

**Q.** What about the GI50 [45] of the same compound?
**A.** Its GI50 is 1.31 µM.

**Q.** What about the TGI [45] of the same compound?
**A.** The TGI was 4.64 µM.

**Q.** And the GI50 [46]?
**A.** Its GI50 is 1.53 µM.

**Q.** And the TGI [46]?
**A.** Its TGI is 5.6 µM.

**Q.** And the GI50 [47]?
**A.** Its GI50 is 1.03 µM.

**Q.** What about the TGI [47] of the same compound?
**A.** Its TGI is 3.13 µM.

**Q.** What about the GI50 [48] of the same compound?
**A.** The GI50 was 1.58 µM.

**Q.** What about the TGI [48] of the same compound?
**A.** The TGI was 5.34 µM.

**Q.** And the GI50 [49]?
**A.** Its GI50 is 1.7 µM.

**Q.** What about the TGI [49] of the same compound?
**A.** Its TGI is over 50 µM.

**Q.** And the GI50 [50]?
**A.** Its GI50 is 1.39 µM.

**Q.** And the TGI [50]?
**A.** Its TGI is 4.26 µM.

**Q.** What about the GI50 [51] of the same compound?
**A.** Its GI50 is 1.79 µM.

**Q.** And the TGI [51]?
**A.** Its TGI is over 50 µM.

**Q.** What about the GI50 [52] of the same compound?
**A.** The GI50 was 1.3 µM.

**Q.** What about the TGI [52] of the same compound?
**A.** The TGI was 4.13 µM.

**Q.** And the GI50 [53]?
**A.** Its GI50 is 1.61 µM.

**Q.** What about the TGI [53] of the same compound?
**A.** Its TGI is 6.47 µM.

**Q.** What about the GI50 [54] of the same compound?
**A.** Its GI50 is 1.6 µM.

**Q.** And the TGI [54]?
**A.** The TGI was 6.24 µM.

**Q.** And the GI50 [55]?
**A.** Its GI50 is 1.68 µM.

**Q.** And the TGI [55]?
**A.** The TGI was over 50 µM.
